Experimental data from patent publication US9610287B2 (H. Lundbeck A/S, priority 2011, dated 2017).

Legend:
[1] = Elimination half life in human; settings: in vivo
D2 receptor = D2 receptor (Homo sapiens, UniProt P14416); assay: PET study in healthy subjects, D2 receptor occupancy (11C-raclopride); type: in vivo; settings: read-out: D2 receptor occupancy in the putamen
rats [2] = assay: Condition avoidance response (CAR) model in rats; type: in vivo, rat; settings: at very low levels of D2 receptor occupancy
D2 receptors = target: T1, D2 receptors (Rattus norvegicus, UniProt P61169); assay: In vivo binding to D2 receptors in rat brain ([3H]-raclopride); settings: sc, subcutaneous
T1 construct: the brain quickly removed and striatum and cerebellum dissected out and homogenized; from tissue; host or cells: striatum of male Wistar rats (in vivo)
T1 sequence (P61169 whole entry): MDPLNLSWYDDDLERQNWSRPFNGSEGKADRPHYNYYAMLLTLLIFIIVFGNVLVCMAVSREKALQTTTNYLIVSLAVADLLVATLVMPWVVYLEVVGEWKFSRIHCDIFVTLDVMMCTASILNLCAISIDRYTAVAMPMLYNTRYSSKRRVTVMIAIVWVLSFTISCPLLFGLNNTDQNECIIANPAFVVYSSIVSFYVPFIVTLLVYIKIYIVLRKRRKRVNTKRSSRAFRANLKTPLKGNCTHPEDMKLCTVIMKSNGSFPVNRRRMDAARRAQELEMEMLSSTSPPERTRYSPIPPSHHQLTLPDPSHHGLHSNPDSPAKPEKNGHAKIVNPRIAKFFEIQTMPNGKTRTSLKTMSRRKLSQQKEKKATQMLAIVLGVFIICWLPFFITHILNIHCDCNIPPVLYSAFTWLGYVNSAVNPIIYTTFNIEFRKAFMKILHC
Procedure: Description of In Vivo Binding to D2 Receptors in Rat Brain
In vivo binding is carried out according to Andersen et al (Eur J Pharmacol, (1987) 144:1-6) with a few modifications (Kapur S. et al, J Pharm Exp Ther, 2003, 305, 625-631). Briefly, 6 rats (male Wistar, 180-200 g) are treated with 20 mg/kg test compound subcutaneous 30 minutes before receiving 9.4 micro Ci [^3H]-raclopride intravenous via the tail vein.
15 minutes after the injection of the radio ligand the animals are killed by cervical dislocation, the brain quickly removed and striatum and cerebellum dissected out and homogenized in 5 mL (cerebellum in 20 mL) ice-cold buffer (50 mM K2PO4, pH 7.4). 1.0 mL of the homogenate is filtered through 0.1% PEI—soaked Whatman GF/C filters. This is completed within 60 seconds subsequent to the decapitation. Filters are washed 2 times with 5 mL ice-cold buffer and counted in a scintillation counter. A group of vehicle treated animals is used to determine [^3H]-raclopride total binding in striatum and non-specific binding in cerebellum. The homogenate is measured for protein content by the BCA protein determination assay (Smith P. K. et al (1985) Anal. Biochem., 150: 6-85).

rats [3] = settings: fumarate salt; cited from earlier work
D1 receptor = D1 receptor (Homo sapiens, UniProt P21728); assay: PET study in healthy subjects, D1 receptor occupancy (11C-SCH23390); type: in vivo; settings: read-out: D1 receptor occupancy in putamen
Sequence of D1 receptor (P21728 whole entry): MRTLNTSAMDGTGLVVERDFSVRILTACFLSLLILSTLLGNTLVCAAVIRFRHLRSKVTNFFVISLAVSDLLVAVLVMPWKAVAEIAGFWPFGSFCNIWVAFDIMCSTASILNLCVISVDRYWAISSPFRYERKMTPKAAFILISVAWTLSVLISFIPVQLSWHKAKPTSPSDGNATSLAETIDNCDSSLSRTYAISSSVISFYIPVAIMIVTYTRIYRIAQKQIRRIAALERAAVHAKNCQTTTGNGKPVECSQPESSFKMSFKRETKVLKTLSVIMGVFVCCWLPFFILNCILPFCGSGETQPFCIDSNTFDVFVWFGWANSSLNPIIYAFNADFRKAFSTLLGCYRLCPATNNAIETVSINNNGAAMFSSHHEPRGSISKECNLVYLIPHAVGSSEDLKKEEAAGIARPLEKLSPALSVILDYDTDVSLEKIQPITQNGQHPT

schizophrenic patients = assay: Randomized, double-blind study of daily vs weekly dosing in schizophrenic patients, PANSS Total Score; type: in vivo, human
Excerpt: The study is a randomized, double-blind, parallel-group, exploratory study of safety, tolerability and PK of daily dosing vs weekly dosing of Compound (I) in schizophrenic patients.
The open-label period (OL_Period) is the period from start of open-label treatment (baseline) until stop of open-label treatment (at OL-withdrawal or randomisation to double-blind treatment, whichever occurs first).
The double-blind period (DB_Period) is the period from start of double-blind treatment (randomisation) until stop of double-blind treatment (at DB-withdrawal or completion, whichever occurs first), that is, the entire double-blind period including the PBO_Period.
The IMP dosing period (IMP_Period) is the period from start of open-label treatment (baseline) until stop of double-blind treatment (at withdrawal or completion, whichever occurs first), that is, the OL_Period plus the DB_Period.
A study was conducted with a study design as described in Example 2.

[4] = 2 mg/day given daily for 18 days
[5] = 10 mg/day given daily for 18 days

Sequence of D2 receptor (P14416 whole entry): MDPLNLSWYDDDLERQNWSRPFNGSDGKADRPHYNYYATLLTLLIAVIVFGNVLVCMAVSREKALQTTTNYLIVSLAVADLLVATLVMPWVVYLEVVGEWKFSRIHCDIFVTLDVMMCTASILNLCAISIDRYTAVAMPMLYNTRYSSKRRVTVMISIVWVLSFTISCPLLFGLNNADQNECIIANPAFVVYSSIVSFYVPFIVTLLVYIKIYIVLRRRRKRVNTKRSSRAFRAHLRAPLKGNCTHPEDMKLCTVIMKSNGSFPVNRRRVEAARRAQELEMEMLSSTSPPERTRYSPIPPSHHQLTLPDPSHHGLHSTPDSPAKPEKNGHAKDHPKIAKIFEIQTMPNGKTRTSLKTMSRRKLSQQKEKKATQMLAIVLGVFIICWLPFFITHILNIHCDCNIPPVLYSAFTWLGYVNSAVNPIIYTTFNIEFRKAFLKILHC

CC1(C)CN([C@@H]2C[C@@H](c3ccccc3)c3ccc(Cl)cc32)CCN1 (relative stereo) [Compound (II), trans-1(6-chloro-3-phenyl-indan-1-yl)-3,3-dimethyl-piperazine]
half-life [1]: 300 to 400 h

CN1CCN([C@@H]2C[C@@H](c3ccccc3)c3ccc(Cl)cc32)CC1(C)C [Compound (I), 4-((1R,3S)-6-chloro-3-phenyl-indan-1-yl)-1,2,2-trimethyl-piperazine]
receptor occupancy at 2 mg (D2 receptor; [4]): 11%
receptor occupancy at 10 mg (D2 receptor; [5]): 43%
antipsychotic activity in CAR model (rats [2]): possesses antipsychotic activity
ED50 (D2 receptors): 4.1 mg/kg
induction of catalepsy (rats [3]): does not induce catalepsy
receptor occupancy at 2 mg (D1 receptor; [4]): 32%
receptor occupancy at 10 mg (D1 receptor; [5]): 69%
Mean (change in PANSS) Total Score from randomization (schizophrenic patients; 10 mg/day, study day 29): 1.55
Mean (change in PANSS) Total Score from randomization (schizophrenic patients; 10 mg/day, study day 36): −1.00
Mean (change in PANSS) Total Score from randomization (schizophrenic patients; 10 mg/day, study day 43): −2.50
Mean (change in PANSS) Total Score from randomization (schizophrenic patients; 10 mg/day, study day 50): −3.50
Mean (change in PANSS) Total Score from randomization (schizophrenic patients; 10 mg/day, study day 57): −5.80
Mean (change in PANSS) Total Score from randomization (schizophrenic patients; 20 mg/week, study day 29): 0.00
Mean (change in PANSS) Total Score from randomization (schizophrenic patients; 20 mg/week, study day 36): 0.80
Mean (change in PANSS) Total Score from randomization (schizophrenic patients; 20 mg/week, study day 43): −2.00
Mean (change in PANSS) Total Score from randomization (schizophrenic patients; 20 mg/week, study day 50): −1.22
Mean (change in PANSS) Total Score from randomization (schizophrenic patients; 20 mg/week, study day 57): −4.38
Mean (change in PANSS) Total Score from randomization (schizophrenic patients; 30 mg/week, study day 29): 1.09
Mean (change in PANSS) Total Score from randomization (schizophrenic patients; 30 mg/week, study day 36): 0.50
Mean (change in PANSS) Total Score from randomization (schizophrenic patients; 30 mg/week, study day 43): 4.00
Mean (change in PANSS) Total Score from randomization (schizophrenic patients; 30 mg/week, study day 50): −4.14
Mean (change in PANSS) Total Score from randomization (schizophrenic patients; 30 mg/week, study day 57): −5.43
Mean (change in PANSS) Total Score from randomization (schizophrenic patients; 45 mg/week, study day 29): 0.40
Mean (change in PANSS) Total Score from randomization (schizophrenic patients; 45 mg/week, study day 36): −3.50
Mean (change in PANSS) Total Score from randomization (schizophrenic patients; 45 mg/week, study day 43): −5.70
Mean (change in PANSS) Total Score from randomization (schizophrenic patients; 45 mg/week, study day 50): −8.00
Mean (change in PANSS) Total Score from randomization (schizophrenic patients; 45 mg/week, study day 57): −6.88
reduction in PANSS Total Score compared with daily dose of 10 mg/day (schizophrenic patients; once weekly, 20 mg/week to 45 mg/week, in particular 30 and 45 mg/week): as effective in reduction in PANSS Total Score as a daily dose of 10 mg/day
reduction of PANSS Total Score compared with daily dose of 10 mg/day (schizophrenic patients; once weekly, between about 30 mg/week and about 45 mg/week): at least to the same extend as a daily dose of 10 mg/day
half-life [1]: ~150 h
